Measurements reported in patent US11254663B2 (BRISTOL-MYERS SQUIBB COMPANY, priority 2019, dated 2022).
pEC50: −log10 of the molar value.

Biological target: FXR (Homo sapiens (Human), UniProt Q96RI1)
Assay: transient human FXR/Gal4-luciferase reporter assay
Type: cell-based
Conditions: not given
Summary of the method: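 Compound exposure ran overnight at 37 °C and activity was measured as luminescence with Steady-Glo reagent. The cells were a HEK293 line stably expressing firefly luciferase under five Gal4 response elements. They were transiently transfected, one night beforehand, with a plasmid encoding Gal4 DNA-binding domain fused to the human FXR ligand-binding domain.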

Sequence of FXR (Q96RI1 262-486): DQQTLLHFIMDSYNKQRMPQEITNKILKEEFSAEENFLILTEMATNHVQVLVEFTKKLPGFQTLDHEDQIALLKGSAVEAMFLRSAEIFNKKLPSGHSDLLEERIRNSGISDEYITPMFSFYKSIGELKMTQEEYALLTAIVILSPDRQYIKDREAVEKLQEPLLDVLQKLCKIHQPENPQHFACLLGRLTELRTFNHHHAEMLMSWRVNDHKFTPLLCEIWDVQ

Q: With `CCOc1ncc(-c2cccc(N(CC34CCC(c5noc(C(C)(C)C)n5)(CC3)CC4)C(=O)C3CC(O)(C(F)(F)F)C3)c2)cn1` [Example 509, (1S,3S)—N-((4-(5-(tert-butyl)-1,2,4-oxadiazol-3-yl)bicyclo[2.2.2]octan-1-yl)methyl)-N-(3-(2-ethoxypyrimidin-5-yl)phenyl)-3-hydroxy-3-(trifluoromethyl)cyclobutane-1-carboxamide] as the molecule, how does the pEC50 read?
A: Its pEC50 is 6.64.

Same assay, conditions: Gal4-hFXR fusion construct, HEK293 reporter cells; response relative to 8 μM GW-4064

Q: With `CCc1ccc(-c2cccc(N(CC34CCC(c5nc(C6CC6)no5)(CC3)CC4)C(=O)C34CC(F)(C3)C4)c2)cc1` [Example 285, N-((4-(3-cyclopropyl-1,2,4-oxadiazol-5-yl)bicyclo[2.2.2]octan-1-yl)methyl)-N-(4′-ethyl-[1,1′-biphenyl]-3-yl)-3-fluorobicyclo[1.1.1]pentane-1-carboxamide] as the molecule, how does the pEC50 read?
A: Its pEC50 is 6.65.

Q: `CS(=O)(=O)Nc1ccc(-c2cccc(N(CC34CCC(c5cc(C(F)(F)F)ccn5)(CC3)CC4)C(=O)C34CC(F)(C3)C4)c2)cc1` [Example 355, 3-fluoro-N-(4′-(methylsulfonamido)-[1,1′-biphenyl]-3-yl)-N-((4-(4-(trifluoromethyl)pyridin-2-yl)bicyclo[2.2.2]octan-1-yl)methyl)bicyclo[1.1.1]pentane-1-carboxamide] was tested. Which pEC50 did it give?
A: The pEC50 was 6.11.

Q: How did the pEC50 turn out when `Cc1ccc(-c2cccc(N(CC34CCC(c5nc(C6CC6)no5)(CC3)CC4)C(=O)C34CC(F)(C3)C4)c2)nn1` [Example 295, N-((4-(3-cyclopropyl-1,2,4-oxadiazol-5-yl)bicyclo[2.2.2]octan-1-yl)methyl)-3-fluoro-N-(3-(6-methylpyridazin-3-yl)phenyl)bicyclo[1.1.1]pentane-1-carboxamide] was run?
A: Its pEC50 is 6.08.

Q: `Cc1nc2ccc(-c3cccc(N(CC45CCC(c6cc(C7CC7)nn6C)(CC4)CC5)C(=O)C45CC(F)(C4)C5)c3)cc2s1` [Example 415, N-((4-(3-cyclopropyl-1-methyl-1H-pyrazol-5-yl)bicyclo[2.2.2]octan-1-yl)methyl)-3-fluoro-N-(3-(2-methylbenzo[d]thiazol-6-yl)phenyl)bicyclo[1.1.1]pentane-1-carb oxamide] was tested. Which pEC50 did it give?
A: The pEC50 was 6.90.

Q: How did the pEC50 turn out when `CC(C)NC(=O)NC12CCC(CN(C(=O)C3CC(O)(C(F)(F)F)C3)c3cccc(-c4ccc(OC(C)C)cc4)c3)(CC1)CC2` (stereo not drawn) [Example 604, (cis)-3-hydroxy-N-(4′-isopropoxy-[1,1′-biphenyl]-3-yl)-N-((4-(3-isopropylureido)bicyclo[2.2.2]octan-1-yl)methyl)-3-(trifluoromethyl)cyclobutane-1-carboxamide] was run?
A: The pEC50 was 6.01.

Q: `CCc1cnc(-c2cccc(N(CC34CCC(c5nc(C(C)C)no5)(CC3)CC4)C(=O)C34CC(F)(C3)C4)c2)nc1` [Example 394, N-(3-(5-ethylpyrimidin-2-yl)phenyl)-3-fluoro-N-((4-(3-isopropyl-1,2,4-oxadiazol-5-yl)bicyclo[2.2.2]octan-1-yl)methyl)bicyclo[1.1.1]pentane-1-carboxamide] was tested. Which pEC50 did it give?
A: The pEC50 was 7.11.

Q: `COc1ncc(C23CCC(CN(C(=O)C45CC(F)(C4)C5)c4cccc(-c5ccc6nc(C)sc6c5)c4)(CC2)CO3)cn1` [Example 558, 3-Fluoro-N-((1-(2-methoxypyrimidin-5-yl)-2-oxabicyclo[2.2.2]octan-4-yl)methyl)-N-(3-(2-methylbenzo[d]thiazol-6-yl)phenyl)bicyclo[1.1.1]pentane-1-carboxamide] was tested. Which pEC50 did it give?
A: The pEC50 was 6.25.

Q: With `COc1ccc(-c2cccc(N(CC34CCC(c5nc(C(C)C)no5)(CC3)CC4)C(=O)C34CC(F)(C3)C4)c2)cc1` [Example 377, 3-fluoro-N-((4-(3-isopropyl-1,2,4-oxadiazol-5-yl)bicyclo[2.2.2]octan-1-yl)methyl)-N-(4′-methoxy-[1,1′-biphenyl]-3-yl)bicyclo[1.1.1]pentane-1-carboxamide] as the molecule, how does the pEC50 read?
A: The pEC50 was 7.28.

Q: With `N#Cc1cccc(-c2cccc(N(CC34CCC(c5nc(C6CC6)no5)(CC3)CC4)C(=O)C34CC(F)(C3)C4)c2)c1` [Example 258, N-(3′-cyano-[1,1′-biphenyl]-3-yl)-N-((4-(3-cyclopropyl-1,2,4-oxadiazol-5-yl)bicyclo[2.2.2]octan-1-yl)methyl)-3-fluorobicyclo[1.1.1]pentane-1-carboxamide] as the molecule, how does the pEC50 read?
A: The pEC50 was 6.32.

Q: With `Cc1nc2ccc(-c3cccc(N(CC45CCC(c6noc(C7(C)CC7)n6)(CC4)CC5)C(=O)C45CC(F)(C4)C5)c3)cc2s1` [Example 402, 3-fluoro-N-(3-(2-methylbenzo[d]thiazol-6-yl)phenyl)-N-((4-(5-(1-methylcyclopropyl)-1,2,4-oxadiazol-3-yl)bicyclo[2.2.2]octan-1-yl)methyl)bicyclo[1.1.1]pentane-1-carboxamide] as the molecule, how does the pEC50 read?
A: Its pEC50 is 7.46.

Q: `CC(C)S(=O)(=O)Nc1ccc(-c2cccc(N(CC34CCC(c5nc(C6CC6)no5)(CC3)CC4)C(=O)C34CC(F)(C3)C4)c2)cc1` [Example 268, N-((4-(3-cyclopropyl-1,2,4-oxadiazol-5-yl)bicyclo[2.2.2]octan-1-yl)methyl)-3-fluoro-N-(4′-((1-methylethyl)sulfonamido)-[1,1′-biphenyl]-3-yl)bicyclo[1.1.1]pentane-1-carboxamide] was tested. Which pEC50 did it give?
A: The pEC50 was 6.78.

Q: With `Cc1nc2ncc(-c3cccc(N(CC45CCC(c6nc(C7CC7)no6)(CC4)CC5)C(=O)C45CC(F)(C4)C5)c3)cc2s1` [Example 278, N-((4-(3-cyclopropyl-1,2,4-oxadiazol-5-yl)bicyclo[2.2.2]octan-1-yl)methyl)-3-fluoro-N-(3-(2-methylthiazolo[4,5-b]pyridin-6-yl)phenyl)bicyclo[1.1.1]pentane-1-carboxamide] as the molecule, how does the pEC50 read?
A: The pEC50 was 7.08.

Q: How did the pEC50 turn out when `CCOc1ncc(-c2cncc(N(CC34CCC(c5noc(C(C)(C)C)n5)(CC3)CC4)C(=O)C34CC(F)(C3)C4)c2)cn1` [Example 478, N-((4-(5-(tert-butyl)-1,2,4-oxadiazol-3-yl)bicyclo[2.2.2]octan-1-yl)methyl)-N-(5-(2-ethoxypyrimidin-5-yl)pyridin-3-yl)-3-fluorobicyclo[1.1.1]pentane-1-carboxamide] was run?
A: The pEC50 was 5.96.

Q: With `CC(F)(F)c1nc(C23CCC(CN(C(=O)C4CC(O)(C(F)(F)F)C4)c4cccc(-c5ccc(C(O)C(F)F)cc5)c4)(CC2)CC3)no1` (single isomer, unassigned) [Example 628 (second eluting isomer)] as the molecule, how does the pEC50 read?
A: The pEC50 was 6.89.

Q: `CC(C)(F)c1nc(C23CCC(CN(c4cccc(C5=CC6(C5)CC(C(C)(C)O)C6)c4)C(=O)[C@H]4C[C@](O)(C(F)(F)F)C4)(CC2)CC3)no1` (stereo partly drawn) [Example 590, (cis)-N-((4-(5-(2-fluoropropan-2-yl)-1,2,4-oxadiazol-3-yl)bicyclo[2.2.2]octan-1-yl)methyl)-3-hydroxy-N-(3-(6-(2-hydroxypropan-2-yl)spiro[3.3]hept-1-en-2-yl)phenyl)-3-(trifluoromethyl)cyclobutane-1-carboxamide] was tested. Which pEC50 did it give?
A: Its pEC50 is 7.96.

Q: With `Cc1c(-c2cccc(N(CC34CCC(c5nc(C6CC6)no5)(CC3)CC4)C(=O)C34CC(F)(C3)C4)c2)cn2ncnc2c1C` [Example 312, N-((4-(3-cyclopropyl-1,2,4-oxadiazol-5-yl)bicyclo[2.2.2]octan-1-yl)methyl)-N-(3-(7,8-dimethyl-[1,2,4]triazolo[1,5-a]pyridin-6-yl)phenyl)-3-fluorobicyclo[1.1.1]pentane-1-carboxamide] as the molecule, how does the pEC50 read?
A: The pEC50 was 6.04.

Q: With `CC(C)(OC(=O)N(CC12CCC(c3noc(C4(F)CC4)n3)(CC1)CC2)c1cc(-c2ccc(OC(F)F)cc2)ccn1)C(F)(F)F` [Example 624, 1,1,1-trifluoro-2-methylpropan-2-yl(4-(4-(difluoromethoxy)phenyl)pyridin-2-yl)((4-(5-(1-fluorocyclopropyl)-1,2,4-oxadiazol-3-yl)bicyclo[2.2.2]octan-1-yl)methyl)carbamate] as the molecule, how does the pEC50 read?
A: The pEC50 was 7.30.

Q: How did the pEC50 turn out when `CC(C)(O)c1ccc(-c2cccc(N(CC34CCC(c5noc(C(F)(F)F)n5)(CC3)CC4)C(=O)NCC3CC4(CC4)C3)c2)cc1` [Example 614, 1-(4′-(2-hydroxypropan-2-yl)-[1,1′-biphenyl]-3-yl)-3-(spiro[2.3]hexan-5-ylmethyl)-1-((4-(5-(trifluoromethyl)-1,2,4-oxadiazol-3-yl)bicyclo[2.2.2]octan-1-yl)methyl)urea] was run?
A: Its pEC50 is 6.77.

Q: With `CC(C)c1noc(C23CCC(CN(C(=O)C45CC(F)(C4)C5)c4cccc(-c5ccc(NS(C)(=O)=O)cc5)c4)(CC2)CC3)n1` [Example 376, 3-fluoro-N-((4-(3-isopropyl-1,2,4-oxadiazol-5-yl)bicyclo[2.2.2]octan-1-yl)methyl)-N-(4′-(methylsulfonamido)-[1,1′-biphenyl]-3-yl)bicyclo[1.1.1]pentane-1-carboxamide] as the molecule, how does the pEC50 read?
A: The pEC50 was 7.49.

Q: How did the pEC50 turn out when `N#CC1(c2ccc(-c3cccc(N(CC45CCC(c6noc(C7(F)CC7)n6)(CC4)CC5)C(=O)[C@H]4C[C@](O)(C(F)(F)F)C4)c3)cc2F)CC1` [Example 578, (cis)-N-(4′-(1-cyanocyclopropyl)-3′-fluoro-[1,1′-biphenyl]-3-yl)-N-((4-(5-(1-fluorocyclopropyl)-1,2,4-oxadiazol-3-yl)bicyclo[2.2.2]octan-1-yl)methyl)-3-hydroxy-3-(trifluoromethyl)cyclobutane-1-carboxamide] was run?
A: The pEC50 was 7.04.

Q: With `N#Cc1ccc(-c2cccc(N(CC34CCC(c5nc(C6CC6)no5)(CC3)CC4)C(=O)C34CC(F)(C3)C4)c2)c2cccnc12` [Example 311, N-(3-(8-cyanoquinolin-5-yl)phenyl)-N-((4-(3-cyclopropyl-1,2,4-oxadiazol-5-yl)bicyclo[2.2.2]octan-1-yl)methyl)-3-fluorobicyclo[1.1.1]pentane-1-carboxamide] as the molecule, how does the pEC50 read?
A: The pEC50 was 6.18.

Q: `CC(C)(OC(=O)N(CC12CCC(c3nc(C4CC4)no3)(CC1)CC2)c1nccc(C23CCC(C#N)(CC2)CC3)n1)C(F)(F)F` [Example 665, 1,1,1-trifluoro-2-methylpropan-2-yl (4-(4-cyanobicyclo[2.2.2]octan-1-yl)pyrimidin-2-yl)((4-(3-cyclopropyl-1,2,4-oxadiazol-5-yl)bicyclo[2.2.2]octan-1-yl)methyl)carbamate] was tested. Which pEC50 did it give?
A: Its pEC50 is 5.70.

Q: `CCc1cnc(-c2cccc(N(CC34CCC(c5noc(C(C)(C)C)n5)(CC3)CC4)C(=O)C34CC(F)(C3)C4)c2)nc1` [Example 453, N-((4-(5-(tert-butyl)-1,2,4-oxadiazol-3-yl)bicyclo[2.2.2]octan-1-yl)methyl)-N-(3-(5-ethylpyrimidin-2-yl)phenyl)-3-fluorobicyclo[1.1.1]pentane-1-carboxamide] was tested. Which pEC50 did it give?
A: The pEC50 was 7.47.
